Paper PMC10815131, “Novel Pitolisant-Derived Sulfonyl Compounds for Alzheimer Disease” (International Journal of Molecular Sciences, 2024)
Where two headings read alike, the source gives them in different places.

What was measured:
in vitro = details: PAMPA
AChE = biological target: T1, AChE (Rattus norvegicus, UniProt P37136); assay: biochemical; details: for inhibition at 1 µM: tested at 1 μM, rat hippocampal homogenate, read-out: AChE Inhibition (%) ± SEM
T1 sequence (P37136 32-614): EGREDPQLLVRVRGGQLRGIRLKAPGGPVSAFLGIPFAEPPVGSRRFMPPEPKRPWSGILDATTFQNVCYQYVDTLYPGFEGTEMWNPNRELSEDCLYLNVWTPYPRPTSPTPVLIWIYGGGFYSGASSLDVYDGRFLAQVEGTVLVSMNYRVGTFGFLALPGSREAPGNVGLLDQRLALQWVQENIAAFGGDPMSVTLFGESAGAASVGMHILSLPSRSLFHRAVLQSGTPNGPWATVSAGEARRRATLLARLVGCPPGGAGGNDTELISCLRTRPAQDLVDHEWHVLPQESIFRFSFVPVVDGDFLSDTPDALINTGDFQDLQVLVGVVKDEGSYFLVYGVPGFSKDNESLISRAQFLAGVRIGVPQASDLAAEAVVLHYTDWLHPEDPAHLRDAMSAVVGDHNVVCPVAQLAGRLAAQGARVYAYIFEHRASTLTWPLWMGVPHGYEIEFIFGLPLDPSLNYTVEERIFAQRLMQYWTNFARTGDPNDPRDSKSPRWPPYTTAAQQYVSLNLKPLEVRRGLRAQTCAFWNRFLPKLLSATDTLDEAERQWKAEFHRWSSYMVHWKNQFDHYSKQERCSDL
Experimental: Male Wistar rats weighing 230–250 g were used. AChE activity was assessed using a colorimetric reported method with minor modifications. Hippocampal tissue was homogenized in 39 volumes of 75 mM sodium phosphate buffer (pH 7.4). A mixture of 2 mL containing the compounds assessed, acetylthiocholine iodide, and 50 μL tissue homogenate was incubated for 8 min. […] The extent of color production was measured spectrophometrically at 420 nm using Ultospec 3000 (Pharmacia Biotech, Piscataway, NJ, USA). All samples were assayed in triplicate. Results were expressed as percentages of control values.
Different concentrations of the compounds were tested for their ability to inhibit AChE activity.

[1] = for Pe: pig, PAMPA
[2] = test system: K+-evoked [3H]ACh efflux in rat hippocampal slices; assay: In vitro ACh release, K+-evoked [3H]ACh efflux; type: cell-based
Experimental: Male Wistar rats weighing 230–250 g were used. K^+-evoked [^3H]ACh efflux was measured as previously described [39]. Briefly, the hippocampus was removed and dissected, cut sagittally into 500 µm slices using a McIlwain tissue chopper (The Mickle Laboratory Engineering Co. Ltd., Dorking, UK). […] Fractions were collected at 3-min intervals for a total of 60 min. At 12 min (S1) and 45 min (S2) after equilibration, the slices were depolarized by changing the superfusion fluid during 6 min to a solution containing 20 mM KCl. Drugs were added 15 min before S2. Tritium content was assayed by liquid scintillation spectroscopy. S1 and S2 were calculated as K+-stimulated tritium increases over basal efflux. Results were expressed as the S2/S1 ratio.

Row | SMILES | Papp (in vitro) | inhibition at 1 µM (AChE) | PAMPA-BBB Classification [1] | Pe [1] | Papp at 20 h, 500 µg/mL (in vitro) | K+-evoked [3H]ACh efflux [2] | AChE activity inhibition (in words) (AChE; 0.01–10 µM, in vitro) | IC50 (AChE; estimated from non-linear fitted dose-response curves, 0.01–10 µM) | Pe ([1]; 20 h, 500 µg/mL)
1 | CN(C)c1ccc(NC(=O)NS(=O)(=O)c2ccc(OCCCN3CCCC3)cc2)cc1 [Compound 6] | 0.32 ± 0.01 ×10⁻⁶ cm/s | 29.9 ± 3.63% | CNS − (key: CNS +/−: BBB permeation uncertain: Pe (10^−6 cm/s) from 4.0 to 2.0; CNS −: low BBB permeation predicted: Pe (10^−6 cm/s < 2.0) | 0.32 | – | – | – | – | –
2 | O=C(Nc1cccc2ccccc12)NS(=O)(=O)c1ccc(OCCCN2CCCC2)cc1 [Compound 5] | – | 25.2 ± 7.7% | – | – | – | – | – | – | –
3 | NS(=O)(=O)c1ccc(OCCCN2CCOCC2)cc1 [Compound 3] | – | < 5% | – | – | – | – | – | – | –
4 | O=C(NC(c1ccccc1)c1ccccc1)NS(=O)(=O)c1ccc(OCCCN2CCCC2)cc1 [Compound 7] | – | > 37% | CNS − (key: CNS +/−: BBB permeation uncertain: Pe (10^−6 cm/s) from 4.0 to 2.0; CNS −: low BBB permeation predicted: Pe (10^−6 cm/s < 2.0) | – | 0.47 ± 0.06 ×10⁻⁶ cm/s | able to increase ACh release in vitro | significantly inhibit AChE activity in a concentration-dependent manner | > 10 µM | 0.47
